From paper PMC8229181, “Chemical Characterization and Anti-Inflammatory Activity of Phytoconstituents from Swertia alata” (Plants, 2021)

Key:
[1] = tested on: carrageenan induced rat paw edema; assay: Carrageenan-induced rat paw edema method; assay type: in vivo, Wistar albino rat; details: for Increase in Paw Edema (Mean ± SEM): 3 h after inducing edema, rat
Source text: Carageenan was used to induced paw Edema in Wistar albino rat. Carrageenan induced paw edema is a standard assay for acute inflammation that is effectively employed to evaluate the phytoisolate against anti-inflammatory activity. Edema is produced by a sequential release of inflammatory mediators such as histamine, serotonin, kinnins, prostaglandins and bradykinins, which leads to fluid accumulation. Edema is characteristic of an acute inflammatory response. The release of histamine or serotonin occurs in the first phase (up to 1 h) and the second phase (over 1 h) is associated with the production of bradykinins. It is well known that the third phase of the edema induced by carrageenan, in which the edema reaches its highest volume, is characterized by the presence of prostaglandins and other compounds of slow reaction. Previous studies have shown that phytocompounds of S. alata play an important pharmacological role in inflammation. […] Moreover, several studies support that S. alata species have shown antioxidative effects. Inhibition of COX by S. alata leads to a decrease in all prostaglandin and thromboxane synthesis, which accounts for the beneficial anti-inflammatory and prevents ulcerogenic effects. […] Based on the antioxidant effect, SA4 may involve the inhibition of cyclooxygenase/prostaglandin-endoperoxide synthase (PGHS-1 and PGHS-2), and regulatory enzymes, involved in the biosynthesis of prostaglandin (PG) which is strongly implicated in inflammation.
The anti-inflammatory activity of isolated compound was evaluated on Wistar albino rat using carrageenan induced rat paw edema method as per the procedure described in earlier research. The animals were divided into groups, consisting of five rats in each group. The prepared compounds were administered orally at doses of 2, 4, 8 mg/kg body weight (oral gavage) and the volume of paw was determined plethysmographically (Ugo-Basile, Gemonio (VA), Italy). […] Carrageenan (0.1 mL, 1.0% w/v in 0.9% of normal saline) was injected after half an hour into the sub-plantar tissue of the rat’s hind paw. The paw volume was measured at hourly intervals for 3 h (0, 1, 2, and 3 h) and the percent inhibition of edema was calculated using the following formula:% inhibition = (1 − Vs/Vc × 100),(1) where, Vs = paw volume in sample treated group, Vc = paw volume in control group.

human recombinant COX-2 = human recombinant COX-2 (Homo sapiens, UniProt P35354); assay: In vitro COX-2 inhibitory assay (enzyme immunoassay kit); assay type: biochemical; details: human recombinant COX-2, enzyme immunoassay kit
Description: (§1) The enzymatic assay was performed as per the manufacturer’s assay instructions and standard literature [48]. COX-1 and COX-2 enzymatic activity provides a simple, sensitive, and high-throughput adaptable method to detect the peroxidase activity of COX in biological samples or purified/crude enzyme preparations. The kit includes COX-1 and COX-2 specific inhibitors to differentiate the activity of COX-1 and COX-2 as well as other peroxidases, which may be present in the sample [49].

ovine COX-1 = target: T1, ovine COX-1 (Ovis aries, UniProt P05979); assay: In vitro COX-1 inhibitory assay (enzyme immunoassay kit); assay type: biochemical; details: ovine COX-1, enzyme immunoassay kit
T1 construct: purchased Cayman Chemicals Inc., Ann Arbor, MI, USA 560131
T1 sequence (P05979 25-600): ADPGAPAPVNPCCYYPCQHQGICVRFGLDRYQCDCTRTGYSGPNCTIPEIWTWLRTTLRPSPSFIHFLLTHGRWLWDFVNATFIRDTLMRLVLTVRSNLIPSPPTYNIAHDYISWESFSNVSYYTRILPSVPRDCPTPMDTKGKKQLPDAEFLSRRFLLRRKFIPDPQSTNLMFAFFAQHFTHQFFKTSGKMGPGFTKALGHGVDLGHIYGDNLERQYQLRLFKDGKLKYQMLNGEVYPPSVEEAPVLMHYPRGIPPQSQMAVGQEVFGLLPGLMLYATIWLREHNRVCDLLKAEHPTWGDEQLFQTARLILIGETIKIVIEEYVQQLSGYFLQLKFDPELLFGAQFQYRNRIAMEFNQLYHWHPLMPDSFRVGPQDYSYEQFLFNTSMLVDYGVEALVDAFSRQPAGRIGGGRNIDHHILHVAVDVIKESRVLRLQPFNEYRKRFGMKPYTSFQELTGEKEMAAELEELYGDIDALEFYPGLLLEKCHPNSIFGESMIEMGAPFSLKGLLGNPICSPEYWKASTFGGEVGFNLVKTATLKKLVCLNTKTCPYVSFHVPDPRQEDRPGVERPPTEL
Description: as §1

human recombinant COX-2, sequence (P35354 18-604): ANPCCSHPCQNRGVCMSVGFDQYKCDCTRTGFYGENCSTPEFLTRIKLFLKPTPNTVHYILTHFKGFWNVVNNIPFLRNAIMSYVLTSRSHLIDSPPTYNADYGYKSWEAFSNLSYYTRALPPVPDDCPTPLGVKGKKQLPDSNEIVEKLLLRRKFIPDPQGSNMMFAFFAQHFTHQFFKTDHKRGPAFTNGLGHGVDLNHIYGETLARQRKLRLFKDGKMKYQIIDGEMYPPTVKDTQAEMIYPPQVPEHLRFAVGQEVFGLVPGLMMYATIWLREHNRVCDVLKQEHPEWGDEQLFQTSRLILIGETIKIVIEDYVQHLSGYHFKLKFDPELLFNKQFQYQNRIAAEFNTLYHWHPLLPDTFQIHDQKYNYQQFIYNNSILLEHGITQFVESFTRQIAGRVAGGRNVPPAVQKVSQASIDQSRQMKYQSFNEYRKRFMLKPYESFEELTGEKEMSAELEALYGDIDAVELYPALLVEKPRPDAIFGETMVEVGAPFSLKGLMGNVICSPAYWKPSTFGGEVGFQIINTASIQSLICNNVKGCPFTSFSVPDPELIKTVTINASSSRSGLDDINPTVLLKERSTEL

SMILES | Increase in Paw Edema (Mean ± SEM) ([1]; 2 mg/kg oral) [mL] | Increase in Paw Edema (Mean ± SEM) ([1]; 4 mg/kg oral) [mL] | Increase in Paw Edema (Mean ± SEM) ([1]; 8 mg/kg oral) [mL] | Increase in Paw Edema (Mean ± SEM) ([1]; reference drug, oral (8 mg/kg; 21 mg/kg elsewhere in the source)) [mL] | IC50 (human recombinant COX-2) [µM] | IC50 (ovine COX-1) [µM] | development of edema at the third hour after treatment ([1]; 8 mg/kg, third hour, p < 0.05)
CC1(C)CC[C@]2(C(=O)O)CC[C@]3(C)C(=CC[C@@H]4[C@@]5(C)CC[C@H](O)C(C)(C)[C@@H]5CC[C@]43C)[C@@H]2C1 [SA-1, oleanolic acid] | 0.29 ± 0.00 | 0.27 ± 0.22 | 0.23 ± 0.01 |  |  |  | 
COc1ccc2c(c1)c(CC(=O)O)c(C)n2C(=O)c1ccc(Cl)cc1 [Indomethacin, reference compound] |  |  |  | 0.15 ± 0.02 |  |  | 
CC(C)C1CCC2(C(=O)O)CCC3(C)C(=CCC4C5(C)CCC(O)C(C)(C)C5CCC43C)C12 (stereo not shown) [SA-4, 3-hydroxylup-12-(13)-ene-17-carboxylic acid] | 0.28 ± 0.00 | 0.26 ± 0.22 | 0.17 ± 0.01 |  | 61.7 | 104 | significantly inhibited
